Reference: EP4238971A1, “SUBSTITUTED ISOXAZOLINE DERIVATIVES” (BASF SE, priority 2022, dated 2023)
Like-named read-outs stand apart in the source and are kept apart here.

Assays:
Type in all cases: in vivo
Anthonomus grandis = assay: Boll weevil (Anthonomus grandis) control, insect diet in 96-well microtiter plates; conditions: for mortality in comparison with untreated controls: 2500ppm; for mortality at 2500 ppm: Anthonomus grandis, 120 h, read-out: mortality in comparison with untreated controls
Description: (§1) If not otherwise specified, the test solutions were prepared as follows: The active compound was dissolved at the desired concentration in a mixture of 1:1 (vol:vol) distilled water:acetone. The test solution was prepared at the day of use.
(§2) Test solutions were prepared in general at a concentration of 2500ppm (wt/vol).
B.1. Boll weevil (Anthonomus grandis)
For evaluating control of boll weevil, the test unit consisted of 96-well-microtiter plates containing an insect diet and 5-10 A. grandis eggs.
The compounds were formulated using a solution containing 75% v/v water and 25% v/v DMSO. Different concentrations of formulated compounds were sprayed onto the insect diet at 5µl, using a custom-built micro atomizer, at two replications.
After application, microtiter plates were incubated at about 25 ± 1°C and about 75 ± 5 % relative humidity for 5 days. Egg and larval mortality were then visually assessed.

Myzus persicae = assay: Green peach aphid (Myzus persicae), mixed life stages, systemic test via artificial diet under membrane; conditions: for mortality at 2500 ppm: Myzus persicae, 72 h, read-out: mortality in comparison with untreated controls
Description: as §1, §2
B.2. Green peach aphid (Myzus persicae) (mixed life stages)
For evaluating control of Green Peach Aphid through systemic means the test unit consisted of 96-well-microtiter plates containing liquid artificial diet under an artificial membrane. The compounds were formulated using a solution containing 75% v/v water and 25% v/v DMSO. Different concentrations of formulated compounds were pipetted into the aphid diet, using a custom-built pipette, at two replications. After application, 5 - 8 adult aphids were placed on the artificial membrane inside the microtiter plate wells. The aphids were then allowed to suck on the treated aphid diet and incubated at about 23 ± 1°C and about 50 ± 5 % relative humidity for 3 days. Aphid mortality and fecundity was then visually assessed.

Heliothis virescens = assay: Tobacco budworm (Heliothis virescens) control, insect diet in 96-well microtiter plates; conditions: for mortality at 2500 ppm: Heliothis virescens, 120 h, read-out: mortality in comparison with untreated controls
Description: as §1, §2
B.3. Tobacco budworm (Heliothis virescens)
For evaluating control of Tobacco Budworm, the test unit consisted of 96-well-microtiter plates containing an insect diet and 15-25 H. virescens eggs. The compounds were formulated using a solution containing 75% v/v water and 25% v/v DMSO. Different concentrations of formulated compounds were sprayed onto the insect diet at 10µl, using a custom-built micro atomizer, at two replications. After application, microtiter plates were incubated at about 28 ± 1°C and about 80 ± 5 % relative humidity for 5 days. Egg and larval mortality was then visually assessed.

Aedes aegypti = assay: whole plant or invertebrate; conditions: larval mortality visually assessed after 2 days; for mortality in comparison with untreated controls: 2500ppm; for mortality at 2500 ppm: Aedes aegypti, 48 h, read-out: mortality in comparison with untreated controls
Description: as §1, §2
B.4. Yellow fever mosquito (Aedes aegypti)
For evaluating control of Yellow Fever Mosquito, the test unit consisted of 96-well-microtiter plates containing 200µl of tap water per well and 5-15 freshly hatched A. aegypti larvae. The active compounds were formulated using a solution containing 75% (v/v) water and 25% (v/v) DMSO. Different concentrations of formulated compounds or mixtures were sprayed onto the insect diet at 2.5µl, using a custom-built micro atomizer, at two replications.
After application, microtiter plates were incubated at 28 ± 1°C, 80 ± 5 % RH for 2 days. Larval mortality was then visually assessed.

Plutella xylostella = assay: Diamond back moth (Plutella xylostella), cabbage leaf disc dip test; conditions: for mortality at 300 ppm: Plutella xylostella, foliar, read-out: mortality in comparison with untreated controls
Description: B.5. Diamond back moth (Plutella xylostella)
The active compound was dissolved at the desired concentration in a mixture of 1:1 (vol:vol) distilled water: acetone. Surfactant (Kinetic) was added at a rate of 0.01% (vol/vol). The test solution was prepared at the day of use. Cabbage leaf discs (60mm in diameter) were dipped in test solution and air-dried. Treated leaves were placed in petri dishes lined with moistened filter paper and inoculated with ten 3rd instar larvae. Mortality was recorded 72 hours after treatment. Feeding damages were also recorded using a scale of 0-100%.

Dichromothrips corbetti = assay: Orchid thrips (Dichromothrips corbetti), floral-immersion technique; conditions: for mortality at 300 ppm: Dichromothrips corbetti, read-out: mortality in comparison with untreated controls
Description: B.6. Orchid thrips (Dichromothrips corbetti)
Dichromothrips corbetti adults used for bioassay were obtained from a colony maintained continuously under laboratory conditions. For testing purposes, the test compound was diluted in a 1:1 mixture of acetone:water (vol:vol), plus Kinetic at a rate of 0.01% v/v.
Thrips potency of each compound was evaluated by using a floral-immersion technique. Each orchid petal was dipped into treatment solution and allowed to dry in Petri dishes. Treated petals were placed into individual re-sealable plastic along with about 20 adult thrips. All test arenas were held under dark condition and a temperature of about 28°C for duration of the assay. The percent mortality was recorded 72 hours after treatment.

Spodoptera eridania = assay: Southern armyworm (Spodoptera eridania), 2nd instar larvae, sprayed lima bean plants; conditions: for mortality in comparison with untreated controls: 300ppm, 2nd instar larvae, assessed 4 days after treatment; for mortality at 300 ppm: Spodoptera eridania, 96 h, read-out: mortality in comparison with untreated controls
Description: B.7. Southern armyworm (Spodoptera eridania), 2nd instar larvae
The active compounds were formulated by a Tecan liquid handler in 100% cyclohexanone as a 10'000 ppm solution supplied in tubes. The 10'000 ppm solution was serially diluted in 100% cyclohexanone to make interim solutions. These served as stock solutions for which final dilutions were made by the Tecan in 50% acetone:50% water (v/v) into 10 or 20ml glass vials. A nonionic surfactant (Kinetic®) was included in the solution at a volume of 0.01% (v/v). The vials were then inserted into an automated electrostatic sprayer equipped with an atomizing nozzle for application to plants/insects. Lima bean plants (variety Sieva) were grown 2 plants to a pot and selected for treatment at the 1st true leaf stage. Test solutions were sprayed onto the foliage by an automated electrostatic plant sprayer equipped with an atomizing spray nozzle. The plants were dried in the sprayer fume hood and then removed from the sprayer. Each pot was placed into perforated plastic bags with a zip closure. Ten to 11 armyworm larvae were placed into the bag and the bags zipped closed. Test plants were maintained in a growth room at about 25°C and about 20-40% relative humidity for 4 days, avoiding direct exposure to fluorescent light (14:10 light:dark photo-period) to prevent trapping of heat inside the bags. Mortality and reduced feeding were assessed 4 days after treatment, compared to untreated control plants.

[1] = egg and larval mortality visually assessed after 5 days
[2] = 2500ppm, aphid mortality visually assessed after 3 days
[3] = 2500ppm, egg and larval mortality visually assessed after 5 days
[4] = 300ppm, 3rd instar larvae, mortality recorded 72 hours after treatment
[5] = 300ppm, adult thrips, mortality recorded 72 hours after treatment

Compound: N#Cc1ccc(NC2=NOC(c3cc(Cl)cc(Cl)c3)(C(F)(F)F)C2)cc1-n1cncn1 (stereo not shown) [I-1]
- mortality in comparison with untreated controls (Anthonomus grandis; [1]): at least 75%
- mortality in comparison with untreated controls (Myzus persicae; [2]): at least 75%
- mortality in comparison with untreated controls (Heliothis virescens; [3]): at least 75%
- mortality in comparison with untreated controls (Aedes aegypti): at least 75%
- mortality in comparison with untreated controls (Plutella xylostella; [4]): at least 75%
- mortality in comparison with untreated controls (Dichromothrips corbetti; [5]): at least 75%
- mortality in comparison with untreated controls (Spodoptera eridania): at least 75%

Compound: N#Cc1ccc(NC2=NOC(c3cc(Cl)c(F)c(Cl)c3)(C(F)(F)F)C2)cc1-n1cncn1 (stereo not shown) [I-4, 4-[[5-(3,5-dichloro-4-fluoro-phenyl)-5-(trifluoromethyl)-4H-isoxazol-3-yl]amino]-2-(1,2,4-triazol-1-yl)benzonitrile]
- mortality at 2500 ppm (Anthonomus grandis): ≥ 75%
- mortality at 2500 ppm (Myzus persicae): ≥ 75%
- mortality at 2500 ppm (Heliothis virescens): ≥ 75%
- mortality at 2500 ppm (Aedes aegypti): ≥ 75%
- mortality at 300 ppm (Plutella xylostella; 72 h): ≥ 75%
- mortality at 300 ppm (Dichromothrips corbetti; 72 h): ≥ 75%
- mortality at 300 ppm (Spodoptera eridania): ≥ 75%

Compound: N#Cc1ccc(NC2=NOC(c3cccc(C(F)(F)F)c3)(C(F)(F)F)C2)cc1-n1cncn1 (stereo not shown) [I-5]
- mortality in comparison with untreated controls (Anthonomus grandis; [1]): at least 75%
- mortality in comparison with untreated controls (Myzus persicae; [2]): at least 75%
- mortality in comparison with untreated controls (Heliothis virescens; [3]): at least 75%
- mortality in comparison with untreated controls (Aedes aegypti): at least 75%
- mortality in comparison with untreated controls (Plutella xylostella; [4]): at least 75%
- mortality in comparison with untreated controls (Dichromothrips corbetti; [5]): at least 75%
- mortality in comparison with untreated controls (Spodoptera eridania): at least 75%

Compound: N#Cc1ccc(NC2=NOC(c3ccc(F)c(Cl)c3)(C(F)(F)F)C2)cc1-n1cncn1 (stereo not shown) [I-6]
- mortality in comparison with untreated controls (Anthonomus grandis; [1]): at least 75%
- mortality in comparison with untreated controls (Myzus persicae; [2]): at least 75%
- mortality in comparison with untreated controls (Heliothis virescens; [3]): at least 75%
- mortality in comparison with untreated controls (Aedes aegypti): at least 75%
- mortality in comparison with untreated controls (Plutella xylostella; [4]): at least 75%
- mortality in comparison with untreated controls (Dichromothrips corbetti; [5]): at least 75%
- mortality in comparison with untreated controls (Spodoptera eridania): at least 75%

Compound: CN(C1=NOC(c2cc(Cl)cc(Cl)c2)(C(F)(F)F)C1)c1ccc(C#N)c(-n2cncn2)c1 (stereo not shown) [I-7]
- mortality in comparison with untreated controls (Anthonomus grandis; [1]): at least 75%
- mortality in comparison with untreated controls (Myzus persicae; [2]): at least 75%
- mortality in comparison with untreated controls (Heliothis virescens; [3]): at least 75%
- mortality in comparison with untreated controls (Aedes aegypti): at least 75%
- mortality in comparison with untreated controls (Plutella xylostella; [4]): at least 75%
- mortality in comparison with untreated controls (Dichromothrips corbetti; [5]): at least 75%
- mortality in comparison with untreated controls (Spodoptera eridania): at least 75%

Compound: CN(C1=NOC(c2ccc(F)c(Cl)c2)(C(F)(F)F)C1)c1ccc(C#N)c(-n2cncn2)c1 (stereo not shown) [I-9]
- mortality in comparison with untreated controls (Anthonomus grandis; [1]): at least 75%
- mortality in comparison with untreated controls (Myzus persicae; [2]): at least 75%
- mortality in comparison with untreated controls (Heliothis virescens; [3]): at least 75%
- mortality in comparison with untreated controls (Aedes aegypti): at least 75%
- mortality in comparison with untreated controls (Plutella xylostella; [4]): at least 75%
- mortality in comparison with untreated controls (Dichromothrips corbetti; [5]): at least 75%
- mortality in comparison with untreated controls (Spodoptera eridania): at least 75%

Compound: Fc1c(Cl)cc(C2(C(F)(F)F)CC(Nc3ccc(Cl)c(-n4cnc(C(F)(F)F)c4)c3)=NO2)cc1Cl (stereo not shown) [I-16, N-[4-chloro-3-[4-(trifluoromethyl)imidazol-1-yl]phenyl]-5-(3,5-dichloro-4-fluoro-phenyl)-5-(trifluoromethyl)-4H-isoxazol-3-amine]
- mortality at 2500 ppm (Anthonomus grandis): ≥ 75%
- mortality at 2500 ppm (Myzus persicae): ≥ 75%
- mortality at 2500 ppm (Heliothis virescens): ≥ 75%
- mortality at 2500 ppm (Aedes aegypti): ≥ 75%
- mortality at 300 ppm (Plutella xylostella; 72 h): ≥ 75%
- mortality at 300 ppm (Dichromothrips corbetti; 72 h): ≥ 75%

Compound: O=C(NCC(F)(F)F)c1cnn(-c2cc(NC3=NOC(c4cc(Cl)c(F)c(Cl)c4)(C(F)(F)F)C3)ccc2Cl)c1 (stereo not shown) [I-18, 1-[2-chloro-5-[[5-(3,5-dichloro-4-fluoro-phenyl)-5-(trifluoromethyl)-4H-isoxazol-3-yl]amino]phenyl]-N-(2,2,2-trifluoroethyl)pyrazole-4-carboxamide]
- mortality at 2500 ppm (Anthonomus grandis; 2500 ppm, egg and larval mortality visually assessed after 5 days): ≥ 75%
- mortality at 2500 ppm (Myzus persicae; [2]): ≥ 75%
- mortality at 2500 ppm (Heliothis virescens; [3]): ≥ 75%
- mortality at 300 ppm (Plutella xylostella; [4]): ≥ 75%
- mortality at 300 ppm (Dichromothrips corbetti; [5]): ≥ 75%

Compound: CCN(C1=NOC(c2cc(Cl)c(F)c(Cl)c2)(C(F)(F)F)C1)c1ccc(C#N)c(-n2cncn2)c1 (stereo not shown) [I-20, 4-[[5-(3,5-dichloro-4-fluoro-phenyl)-5-(trifluoromethyl)-4H-isoxazol-3-yl]-ethyl-amino]-2-(1,2,4-triazol-1-yl)benzonitrile]
- mortality at 2500 ppm (Anthonomus grandis): ≥ 75%
- mortality at 2500 ppm (Heliothis virescens): ≥ 75%
- mortality at 2500 ppm (Aedes aegypti): ≥ 75%
- mortality at 300 ppm (Plutella xylostella; 72 h): ≥ 75%
- mortality at 300 ppm (Dichromothrips corbetti; 72 h): ≥ 75%
- mortality at 300 ppm (Spodoptera eridania): ≥ 75%

Compound: COCN(C1=NOC(c2cc(Cl)c(F)c(Cl)c2)(C(F)(F)F)C1)c1ccc(C#N)c(-n2cncn2)c1 (stereo not shown) [I-22]
- mortality in comparison with untreated controls (Plutella xylostella; [4]): at least 75%
- mortality in comparison with untreated controls (Dichromothrips corbetti; [5]): at least 75%

Compound: CCOC(=O)N(C1=NOC(c2cc(Cl)c(F)c(Cl)c2)(C(F)(F)F)C1)c1ccc(Cl)c(-n2cnc(C(F)(F)F)c2)c1 (stereo not shown) [I-26, ethyl N-[4-chloro-3-[4-(trifluoromethyl)imidazol-1-yl]phenyl]-N-[5-(3,5-dichloro-4-fluoro-phenyl)-5-(trifluoromethyl)-4H-isoxazol-3-yl]carbamate]
- mortality at 2500 ppm (Anthonomus grandis): ≥ 75%
- mortality at 2500 ppm (Heliothis virescens): ≥ 75%
- mortality at 2500 ppm (Aedes aegypti): ≥ 75%
- mortality at 300 ppm (Plutella xylostella; 72 h): ≥ 75%
- mortality at 300 ppm (Dichromothrips corbetti; 72 h): ≥ 75%
- mortality at 300 ppm (Spodoptera eridania): ≥ 75%

Compound: N-[4-chloro-3-[4-(trifluoromethyl)pyrazol-1-yl]phenyl]-5-(3,5-dichloro-4-fluoro-phenyl)-N-(methoxymethyl)-5-(trifluoromethyl)-4H-isoxazol-3-amine [I-23]
- mortality in comparison with untreated controls (Plutella xylostella; [4]): at least 75%
- mortality in comparison with untreated controls (Dichromothrips corbetti; [5]): at least 75%
- mortality in comparison with untreated controls (Spodoptera eridania): at least 75%
